According to patent US20110086886A2, “INSECTICIDAL ISOXAZOLINES” (Bayer CropScience AG, priority 2006, published 2011):

Key:
[1] = tested on: Spodoptera litura larvae; experiment: Test for Spodoptera litura larvae (leaf dip); format: in vivo; details: effective component concentration of 500 ppm, 3rd-instar larvae on dipped sweet potato leaves, after 7 days; for pest or weed control at 500 ppm: foliar, 168 h, read-out: insecticidal ratio
Description: (§1) In order to obtain a preparation of a proper active compound, 1 part by weight of an active compound was mixed with the stated amounts of solvent and emulsifier and the mixture was diluted to a specified concentration with water.
The leaves of sweat potatoes were dipped in the test solution diluted to a specified concentration with water. After these leaves were dried in air to remove the chemical solution, they were placed in a Petri dish of 9 cm in diameter, in which 10 Spodoptera litura larvae of the 3rd-instar were set free. The Petri dish was placed in a thermostatic chamber kept at 25° C. and the leaves of sweat potatoes were added after 2 days and 4 days, to examine the number of dead larvae after 7 days, thereby calculating the insecticidal ratio of the chemical solution.
In this test, an average of the results in two Petri dishes in one section was calculated.

[2] = tested on: Aulacophora femoralis; experiment: Test for Aulacophora femoralis (spray test); format: in vivo; details: effective component concentration of 500 ppm; 2nd-instar, dipped cucumber leaves; after 7 days
Description: as §1
The leaves of cucumbers were dipped in the aqueous solution diluted to a specified concentration with water. After the chemical solution was dried in air, these leaves were placed in a plastic cup, in which sterilized black soil was placed. 5 Aulacophora femoralis of the 2nd-instar were set free in the soil, to examine the number of dead insects after 7 days, thereby calculating the insecticidal ratio of the chemical solution.

[3] = tested on: Myzus persicas resistant to organic phosphorous agents and carbamate agents; experiment: Test for Myzus persicas resistant to organic phosphorous agents and carbamate agents; format: in vivo; details: effective component concentration of 500 ppm; spray on egg plant; 24 hours after spraying
Description: as §1
About 200 head per plantlet of cultivated Myzus persicas resistant to phosphorous agents and carbamate agents were inoculated on an egg plant. The aqueous dilution containing the above prepared active compound having a specified concentration was sprayed on the egg plant in a sufficient amount by a spray gun one day after the inoculation. The egg plant was allowed to stand in a 28° C. green house, to calculate the insecticidal ratio 24 hours after the solution was sprayed. In this case, the test was made twice repeatedly.

[4] = tested on: Lucilia cuprina larvae; experiment: Test for Lucilia cuprina larvae; format: in vivo; details: 48 h, read-out: larval mortality
Description: (§2) 20 mg of active compound are dissolved in 1 ml of dimethyl sulphoxide. To prepare a suitable formulation (e.g. 100 ppm), the active compound solution is diluted to the respective desired concentration with water (e.g. 1 part by weight active compound solution with 199 parts by weight water).
Approximately 20 Lucilia cuprina larvae are introduced into a test tube which contains approx. 1 cm^3 horse meat and 0.5 ml of the active compound preparation to be tested. After 48 hours, the efficacy of the active compound preparation is determined as % larval mortality. 0%: no larvae were killed, 100%: all larvae were killed.

[5] = tested on: Ctenocephalides felis, strain "Georgi"; experiment: Test for cat fleas / oral uptake; format: in vivo; details: in Bos taurus, 48 h, read-out: kill (mortality)
Description: as §2, with “of the” for “of”, “dimethylsulphoxide” for “of dimethyl sulphoxide.”, “cattle blood” for “water”, “cattle blood).” for “water).”
20 unfed adult fleas (Ctenocephalides felis, strain “Georgi”) are placed into a chamber (Ø 5 cm) whose top and bottom are closed with gauze. A metal cylinder whose underside is covered with parafilm is placed onto the chamber. The cylinder contains the blood/active compound formulation which can be taken up by the fleas through the parafilm membrane. Whereas the blood is warmed to 37° C., the temperature in the area of the flea chambers is adjusted to room temperature.
After the desired time the mortality in % is determined. Here 100% means that all fleas were killed; 0% means that no fleas were killed.

Row | SMILES | insecticidal ratio [1] | insecticidal ratio [2] | other results
1 | FC(F)(F)C1(c2cc(Cl)cc(Cl)c2)CC(c2ccc(-n3cccc3)cc2)=NO1 (stereo not shown) |  |  | melting point: 206 to 208 °C
2 | FC(F)(F)c1nnnn1-c1ccc(C2=NOC(c3cc(Cl)cc(Cl)c3)(C(F)(F)F)C2)cc1 (stereo not shown) |  |  | melting point: 147 to 151 °C
3 | N#Cc1cc(C2=NOC(c3cc(C(F)(F)F)cc(C(F)(F)F)c3)(C(F)(F)F)C2)ccc1-n1cncn1 (racemic) [Compound 135] | 100% | 100% | insecticidal ratio [3]: 100%
4 | N#Cc1cc(C2=NOC(c3cc(Cl)cc(Cl)c3)(C(F)(F)F)C2)ccc1-n1cc(Cl)cn1 (stereo not shown) [Compound 17] |  |  | pest or weed control at 500 ppm [1]: 100%; mortality at 100 ppm [4]: > 95%; mortality at 100 ppm [5]: > 80%
5 | N#Cc1cc(C2=NOC(c3cc(Cl)cc(Cl)c3)(C(F)(F)F)C2)ccc1-n1cc([N+](=O)[O-])cn1 (stereo not shown) [Compound 21] | 100% | 100% | 
6 | O=[N+]([O-])c1cc(C2=NOC(c3cc(Cl)cc(Cl)c3)(C(F)(F)F)C2)ccc1-n1cc(F)cn1 (stereo not shown) [Compound 25] | 100% | 100% | 
7 | N#Cc1cc(C2=NOC(c3cccc(C(F)(F)F)c3)(C(F)(F)F)C2)ccc1-n1cc([N+](=O)[O-])cn1 (stereo not shown) [Compound 38] | 100% | 100% | insecticidal ratio [3]: 100%
8 | FC(F)(F)C1(c2cccc(Cl)c2)CC(c2ccc(-n3cncn3)cc2)=NO1 (stereo not shown) [Compound 86] | 100% | 100% | 
9 | N#Cc1cc(C2=NOC(c3cccc(Cl)c3)(C(F)(F)F)C2)ccc1-n1cncn1 (stereo not shown) [Compound 89] | 100% | 100% | 
10 | N#Cc1cc(C2=NOC(c3cc(Cl)cc(Cl)c3)(C(F)(F)F)C2)ccc1-n1cncn1 (stereo not shown) [Compound 101, 5-[5-(3,5-dichlorophenyl)-5-(trifluoromethyl)-4,5-dihydroisoxazol-3-yl)-2-(1H-1,2,4-triazol-1-yl)benzonitrile] |  | 100% | pest or weed control at 500 ppm [1]: 100%; insecticidal ratio [3]: 100%
11 | O=[N+]([O-])c1cc(C2=NOC(c3cc(Cl)cc(Cl)c3)(C(F)(F)F)C2)ccc1-n1cncn1 (stereo not shown) [Compound 104, 1-{4-[5-[3,5-dichlorophenyl]-5-(trifluoromethyl)-4,5-dihydroisoxazol-3-yl]-2-nitrophenyl}-1H-1,2,4-triazole] |  | 100% | pest or weed control at 500 ppm [1]: 100%
12 | CC(=O)Nc1cc(C2=NOC(c3cc(Cl)cc(Cl)c3)(C(F)(F)F)C2)ccc1-n1cncn1 (stereo not shown) [Compound 106, N-{5-[5-(3,5-dichlorophenyl)-5-(trifluoromethyl)-4,5-dihydroisoxazol-3-yl]-2-(1H-1,2,4-triazol-1-yl)phenyl}acetamide] |  | 100% | pest or weed control at 500 ppm [1]: 100%
13 | FC(F)(F)C1(c2cc(Cl)cc(Cl)c2)CC(c2ccc(-n3cnnn3)cc2)=NO1 (stereo not shown) [Compound 148, 1-{4-[5-(3,5-dichlorophenyl)-5-(trifluoromethyl)-4,5-dihydroisoxazol-3-yl]phenyl}-1H-tetrazole] |  | 100% | pest or weed control at 500 ppm [1]: 100%
14 | FC(F)(F)C1(c2cc(Cl)cc(Cl)c2)CC(c2ccc(-n3cnnn3)c(Br)c2)=NO1 (stereo not shown) [Compound 151] | 100% | 100% | 
15 | N#Cc1cc(C2=NOC(c3cc(Cl)cc(Cl)c3)(C(F)(F)F)C2)ccc1-n1cnnn1 (stereo not shown) [Compound 153] | 100% | 100% | insecticidal ratio [3]: 100%
16 | O=[N+]([O-])c1cc(C2=NOC(c3cc(Cl)cc(Cl)c3)(C(F)(F)F)C2)ccc1-n1cnnn1 (stereo not shown) [Compound 154] | 100% | 100% | 
17 | FC(F)(F)c1cccc(C2(C(F)(F)F)CC(c3ccc(-n4cnnn4)cc3)=NO2)c1 (stereo not shown) [Compound 157] | 100% | 100% | 
18 | N#Cc1cc(C2=NOC(c3cccc(C(F)(F)F)c3)(C(F)(F)F)C2)ccc1-n1cnnn1 (stereo not shown) [Compound 160] | 100% | 100% | 
19 | O=[N+]([O-])c1cc(C2=NOC(c3cccc(C(F)(F)F)c3)(C(F)(F)F)C2)ccc1-n1cnnn1 (stereo not shown) [Compound 161] | 100% | 100% | 
20 | N#Cc1cc(C2=NOC(c3cc(C(F)(F)F)cc(C(F)(F)F)c3)(C(F)(F)F)C2)ccc1-n1cnnn1 (stereo not shown) [Compound 165] | 100% | 100% | 
21 | O=[N+]([O-])c1cc(C2=NOC(c3cc(C(F)(F)F)cc(C(F)(F)F)c3)(C(F)(F)F)C2)ccc1-n1cnnn1 (stereo not shown) [Compound 166, 1-(4-{5-[3,5-bis(trifluoromethyl)phenyl]-5-(trifluoromethyl)-4,5-dihydroisoxazol-3-yl}-2-nitrophenyl)-1H-tetrazole] |  | 100% | pest or weed control at 500 ppm [1]: 100%
22 | N#Cc1cc(C2=NOC(c3cc(Cl)cc(Cl)c3)(C(F)(F)F)C2)ccc1-n1ncnn1 (stereo not shown) [Compound 171] | 100% | 100% | 
23 | N#Cc1cc(C2=NOC(c3cc(Cl)cc(Cl)c3)(C(F)(F)F)C2)ccc1-n1cc(N)cn1 (stereo not shown) [Compound 181] | 100% | 100% | 
